Results: US20240287138A1, “CYCLIC PEPTIDES FOR INHIBITING TNF RECEPTOR 1 ACTIVITY” (Merck Sharp & Dohme LLC, priority 2023, published 2024)
pIC50, pKd: −log10 of the molar value. Where two headings read alike, the source gives them in different places. Numbered stars: 1 amine (or outer) side, 2 acyl side, 3 side chain; on linkers, the order of the positions; unused ones are H or OH. Bridge positions count the residues as written; N and C are the ends. Square brackets hold non-standard residues; d marks the D form. Peptide text beside a SMILES is read from it. * marks the point of attachment. Trp(βS-Me,7-OMe) = COc1cccc2c([C@H](C)[C@H](N)C(=O)O)c[nH]c12; Trp(1-CH2COOH) = N[C@@H](Cc1cn(CC(=O)O)c2ccccc12)C(=O)O; X44 = NC(=O)c1ccc([C@@H](O)[C@H](N[*:1])C(=O)[*:2])cc1; Phe(4-SO2NH2) = N[C@@H](Cc1ccc(S(N)(=O)=O)cc1)C(=O)O; dPro(trans-4-NMe2) = CN(C)[C@@H]1CN[C@@H](C(=O)O)C1; Ala(indazol-1-yl) = N[C@@H](Cn1ncc2ccccc21)C(=O)O; Trp(7-CN) = N#Cc1cccc2c(C[C@H](N)C(=O)O)c[nH]c12; Trp(7-Cl) = N[C@@H](Cc1c[nH]c2c(Cl)cccc12)C(=O)O; Ala(pyrimidin-5-yl) = N[C@@H](Cc1cncnc1)C(=O)O; Phe(4-CONH2) = NC(=O)c1ccc(C[C@H](N)C(=O)O)cc1; Phe(4-COOH) = N[C@@H](Cc1ccc(C(=O)O)cc1)C(=O)O; X59 = O=C([C@H](Cc1[nH]nc2ccccc12)N[*:1])[*:2]; Trp(7-aza) = N[C@@H](Cc1c[nH]c2ncccc12)C(=O)O; X48 = O=C([C@H](CC12CC(O)(C1)C2)N[*:1])[*:2]; dPro(4S-NH2) = N[C@@H]1CN[C@@H](C(=O)O)C1; Pip(5R-OH) = O=C(O)[C@@H]1CC[C@@H](O)CN1; X1 = O=C([C@@H]1CC[C@H](N[*:1])C1)[*:2]; Dap(CONH2) = NC(=O)NC[C@H](N)C(=O)O; Pip(4-aza) = O=C(O)[C@@H]1CNCCN1; 4Pal = N[C@@H](Cc1ccncc1)C(=O)O; NMeE = CN[C@@H](CCC(=O)O)C(=O)O; dHyp = O=C(O)[C@H]1C[C@H](O)CN1; αMeS = C[C@](N)(CO)C(=O)O; Carboxymethyl = O=C(O)C*; Nle = CCCC[C@H](N)C(=O)O; Sar = CNCC(=O)O

How the values were obtained:
[1] = target: T1, TNFα-induced NF-κB signal transduction pathway (TNFR1 signaling) in THP-1 cells (Homo sapiens, UniProt P19438); assay: THP-1 Lucia NF-κB reporter cell assay, inhibition of TNFα-induced NF-κB signaling; type: cell-based; settings: THP-1 NF-κB Lucia reporter cells, 10 ng/mL TNFα, 16-18 h, secreted luciferase, read-out: THP-1 IC50
T1 sequence (P19438 30-455): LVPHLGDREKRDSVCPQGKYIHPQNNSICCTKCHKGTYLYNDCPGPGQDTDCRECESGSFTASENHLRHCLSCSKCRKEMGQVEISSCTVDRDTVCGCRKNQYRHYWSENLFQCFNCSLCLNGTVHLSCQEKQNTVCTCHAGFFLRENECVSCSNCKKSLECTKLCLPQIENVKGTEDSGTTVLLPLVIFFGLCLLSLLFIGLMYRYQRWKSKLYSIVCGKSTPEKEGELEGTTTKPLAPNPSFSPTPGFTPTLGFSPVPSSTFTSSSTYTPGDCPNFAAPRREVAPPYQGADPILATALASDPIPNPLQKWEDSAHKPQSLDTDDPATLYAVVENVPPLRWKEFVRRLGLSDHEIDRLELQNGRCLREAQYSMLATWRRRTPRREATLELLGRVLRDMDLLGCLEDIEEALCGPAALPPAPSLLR
Outline: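 Read-out: secreted Lucia luciferase luminescence (QUANTI-Luc) from supernatant after 16-18 h, 37 °C, 10 ng/mL rhTNFα. Peptide pretreatment 1 h at 37 °C; 20,000 cells/well, selection antibiotics omitted. IC50 via 4-parameter logistic model against min/max controls.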

[2] = target: T2, human soluble TNFR1 (sTNFR1) (Homo sapiens, UniProt P19438); assay: Human sTNFR1-peptide displacement assay (LanthaScreen Eu TR-FRET binding assay)
T2 construct: made in house; host or cells: Sf21 (baculovirus)
T2 sequence (P19438 with tags, fused parts or gaps): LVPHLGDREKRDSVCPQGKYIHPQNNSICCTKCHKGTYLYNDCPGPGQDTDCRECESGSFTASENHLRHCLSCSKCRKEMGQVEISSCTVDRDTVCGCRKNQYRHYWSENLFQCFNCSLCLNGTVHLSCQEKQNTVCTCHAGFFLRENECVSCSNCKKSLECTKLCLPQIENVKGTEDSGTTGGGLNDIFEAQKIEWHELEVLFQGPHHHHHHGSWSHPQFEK
Outline: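 Readout is the 665/615 nm TR-FRET ratio (Eu anti-His donor, streptavidin-Alexa647 acceptor), normalized to DMSO and saturating displacer, fit by Morrison-based five-parameter logistic for Kd^app. His-tagged sTNFR1 (1-211) prebound to 100 nM biotinylated peptide SEQ ID NO.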

SMILES	pIC50 [1]	pKd [2]	pIC50 ([1]; listed as 77)	pKd ([2]; displacement of biotinylated peptide SEQ ID NO. 1 from sTNFR1, 20 point titration, 5-parameter fit based on Morrison equation (tight binding), read-out: TR-FRET Kd^app)
CCCC[C@@H]1NC(=O)[C@@H]2CC[C@@H](C2)NC(=O)[C@H]([C@@H](C)c2c[nH]c3c(OC)cccc23)NC(=O)CN(C)C(=O)[C@H](Cc2ccc(C(=O)O)cc2)NC(=O)[C@H](Cc2ccc(S(N)(=O)=O)cc2)NC(=O)[C@](C)(CO)NC(=O)[C@H](Cc2c[nH]c3c(C#N)cccc23)NC(=O)[C@H](Cc2ccc(C(=O)O)cc2)NC(=O)[C@H](CC(N)=O)NC(=O)[C@H]2C[C@H](OCC(=O)O)CN2C(=O)[C@H](Cc2[nH]nc3ccccc23)NC(=O)[C@@H]2CC[C@@H](O)CN2C(=O)[C@H](Cc2ccncc2)NC1=O [SEQ ID NO. 204] (cyclo([4Pal][Pip(5R-OH)][X59][dHyp](Carboxymethyl)N[Phe(4-COOH)][Trp(7-CN)][αMeS][Phe(4-SO2NH2)][Phe(4-COOH)][Sar][Trp(βS-Me,7-OMe)][X1][Nle]))	9.10	9.96		
CCCC[C@@H]1NC(=O)[C@@H]2CC[C@@H](C2)NC(=O)[C@H]([C@@H](C)c2c[nH]c3c(OC)cccc23)NC(=O)CN(C)C(=O)[C@H](Cc2ccc(C(=O)O)cc2)NC(=O)[C@H](Cc2ccc(C(N)=O)cc2)NC(=O)[C@](C)(CO)NC(=O)[C@H](Cc2c[nH]c3c(C#N)cccc23)NC(=O)[C@H](Cc2ccc(C(=O)O)cc2)NC(=O)[C@H](CC(N)=O)NC(=O)[C@H]2C[C@H](OCC(=O)O)CN2C(=O)[C@H](Cc2c[nH]c3ncccc23)NC(=O)[C@@H]2CC[C@@H](O)CN2C(=O)[C@H](Cc2ccncc2)NC1=O [SEQ ID NO. 77] (cyclo([4Pal][Pip(5R-OH)][Trp(7-aza)][dHyp](Carboxymethyl)N[Phe(4-COOH)][Trp(7-CN)][αMeS][Phe(4-CONH2)][Phe(4-COOH)][Sar][Trp(βS-Me,7-OMe)][X1][Nle]))			9.22	10.22
CCCC[C@@H]1NC(=O)[C@@H]2CC[C@@H](C2)NC(=O)[C@H]([C@@H](C)c2c[nH]c3c(OC)cccc23)NC(=O)CN(C)C(=O)[C@H](Cc2ccc(OCC(=O)O)cc2)NC(=O)[C@H](Cc2ccc(S(N)(=O)=O)cc2)NC(=O)[C@](C)(CO)NC(=O)[C@H](Cc2c[nH]c3c(C#N)cccc23)NC(=O)[C@H](Cc2ccc(OCC(=O)O)cc2)NC(=O)[C@H](CC(N)=O)NC(=O)[C@H]2C[C@H](N)CN2C(=O)[C@H](Cc2c[nH]c3ccccc23)NC(=O)[C@@H]2CC[C@@H](O)CN2C(=O)[C@H](Cc2cncnc2)NC1=O [SEQ ID NO. 37] (cyclo(NY(Carboxymethyl)[Trp(7-CN)][αMeS][Phe(4-SO2NH2)]Y(Carboxymethyl)[Sar][Trp(βS-Me,7-OMe)][X1][Nle][Ala(pyrimidin-5-yl)][Pip(5R-OH)]W[dPro(4S-NH2)]))	9.22	10.05		
CCCC[C@@H]1NC(=O)CSC[C@@H](C(N)=O)NC(=O)[C@H]([C@@H](C)c2c[nH]c3c(OC)cccc23)NC(=O)CN(C)C(=O)[C@H](Cc2ccc(O)cc2)NC(=O)[C@H](Cc2ccc(C(=O)O)cc2)NC(=O)[C@](C)(CO)NC(=O)[C@H](Cc2c[nH]c3c(Cl)cccc23)NC(=O)[C@H](Cc2ccncc2)NC(=O)[C@H](CC(N)=O)NC(=O)[C@H](CCC(=O)O)N(C)C(=O)[C@H](Cn2ncc3ccccc32)NC(=O)[C@H]([C@@H](C)O)NC(=O)[C@H](CC23CC(O)(C2)C3)NC1=O [SEQ ID NO. 152] ({CH2CO}-[Nle][X48]T[Ala(indazol-1-yl)][NMeE]N[4Pal][Trp(7-Cl)][αMeS][Phe(4-COOH)]Y[Sar][Trp(βS-Me,7-OMe)]C-NH2; thioether N-14)	8.28	8.92		
CCCC[C@@H]1NC(=O)[C@@H]2CC[C@@H](C2)NC(=O)[C@H]([C@@H](C)c2c[nH]c3c(OC)cccc23)NC(=O)CN(C)C(=O)[C@H]([C@H](O)c2ccc(C(N)=O)cc2)NC(=O)[C@H](Cc2ccc(C(=O)O)cc2)NC(=O)[C@](C)(CO)NC(=O)[C@H](Cc2c[nH]c3c(C#N)cccc23)NC(=O)[C@H](Cc2ccc(C(=O)O)cc2)NC(=O)[C@H](CC(N)=O)NC(=O)[C@H]2C[C@H](N(C)C)CN2C(=O)[C@H](Cc2c[nH]c3ncccc23)NC(=O)[C@@H]2CNCCN2C(=O)[C@H](Cc2ccncc2)NC1=O [SEQ ID NO. 287] (cyclo([4Pal][Pip(4-aza)][Trp(7-aza)][dPro(trans-4-NMe2)]N[Phe(4-COOH)][Trp(7-CN)][αMeS][Phe(4-COOH)][X44][Sar][Trp(βS-Me,7-OMe)][X1][Nle]))	8.77	9.66		
CCCC[C@@H]1NC(=O)[C@@H]2CC[C@@H](C2)NC(=O)[C@H]([C@@H](C)c2c[nH]c3c(OC)cccc23)NC(=O)CN(C)C(=O)[C@H](Cc2ccc(O)cc2)NC(=O)[C@H](Cc2ccc(C(=O)O)cc2)NC(=O)[C@](C)(CO)NC(=O)[C@H](Cc2c[nH]c3c(Cl)cccc23)NC(=O)[C@H](Cc2ccncc2)NC(=O)[C@H](CNC(N)=O)NC(=O)[C@H](CCC(=O)O)N(C)C(=O)[C@H](Cc2c[nH]c3ccccc23)NC(=O)[C@@H]2CNCCN2C(=O)[C@H](Cc2ccncc2)NC1=O [SEQ ID NO. 225] (cyclo([4Pal][Trp(7-Cl)][αMeS][Phe(4-COOH)]Y[Sar][Trp(βS-Me,7-OMe)][X1][Nle][4Pal][Pip(4-aza)]W[NMeE][Dap(CONH2)]))	9.05	9.57		
CCCC[C@@H]1NC(=O)[C@@H]2CC[C@@H](C2)NC(=O)[C@H]([C@@H](C)c2c[nH]c3c(OC)cccc23)NC(=O)CN(C)C(=O)[C@H](Cc2ccc(OCC(=O)O)cc2)NC(=O)[C@H](Cc2ccc(C(N)=O)cc2)NC(=O)[C@](C)(CO)NC(=O)[C@H](Cc2c[nH]c3c(Cl)cccc23)NC(=O)[C@H](Cc2ccncc2)NC(=O)[C@H](CC(N)=O)NC(=O)[C@H](CCC(=O)O)N(C)C(=O)[C@H](Cc2c[nH]c3ccccc23)NC(=O)[C@@H]2CC[C@@H](O)CN2C(=O)[C@H](Cc2ccncc2)NC1=O [SEQ ID NO. 126] (cyclo([4Pal][Trp(7-Cl)][αMeS][Phe(4-CONH2)]Y(Carboxymethyl)[Sar][Trp(βS-Me,7-OMe)][X1][Nle][4Pal][Pip(5R-OH)]W[NMeE]N))	9.10	10.10		
CCCC[C@@H]1NC(=O)[C@@H]2CC[C@@H](C2)NC(=O)[C@H]([C@@H](C)c2c[nH]c3c(OC)cccc23)NC(=O)CN(C)C(=O)[C@H](Cc2ccc(C(=O)O)cc2)NC(=O)[C@H]([C@H](O)c2ccc(C(N)=O)cc2)NC(=O)[C@](C)(CO)NC(=O)[C@H](Cc2c[nH]c3c(C#N)cccc23)NC(=O)[C@H](Cc2ccc(S(N)(=O)=O)cc2)NC(=O)[C@H](CC(N)=O)NC(=O)[C@H]2C[C@H](O)CN2C(=O)[C@H](Cc2cn(CC(=O)O)c3ccccc23)NC(=O)[C@@H]2CC[C@@H](O)CN2C(=O)[C@H](Cc2ccncc2)NC1=O [SEQ ID NO. 119] (cyclo([4Pal][Pip(5R-OH)][Trp(1-CH2COOH)][dHyp]N[Phe(4-SO2NH2)][Trp(7-CN)][αMeS][X44][Phe(4-COOH)][Sar][Trp(βS-Me,7-OMe)][X1][Nle]))	9.15	9.92		
CCCC[C@@H]1NC(=O)[C@@H]2CC[C@@H](C2)NC(=O)[C@H]([C@@H](C)c2c[nH]c3c(OC)cccc23)NC(=O)CN(C)C(=O)[C@H](Cc2ccc(OCC(=O)O)cc2)NC(=O)[C@H](Cc2ccc(S(N)(=O)=O)cc2)NC(=O)[C@](C)(CO)NC(=O)[C@H](Cc2c[nH]c3c(C#N)cccc23)NC(=O)[C@H](Cc2ccc(OCC(=O)O)cc2)NC(=O)[C@H](CC(N)=O)NC(=O)[C@H]2C[C@H](O)CN2C(=O)[C@H](Cn2ncc3ccccc32)NC(=O)[C@@H]2CC[C@@H](O)CN2C(=O)[C@H](Cc2ccncc2)NC1=O [SEQ ID NO. 286] (cyclo([4Pal][Pip(5R-OH)][Ala(indazol-1-yl)][dHyp]NY(Carboxymethyl)[Trp(7-CN)][αMeS][Phe(4-SO2NH2)]Y(Carboxymethyl)[Sar][Trp(βS-Me,7-OMe)][X1][Nle]))	9.40	10.30		
